In patent publication US20110245323A1, “RIG-Like Helicase Innate Immunity Inhibits VEGF-Induced Tissue Responses” (Yale University, priority 2006, published 2011):

Experiments:
Type in all cases: in vivo, mouse
[1] = tested on: CC10-rtTA-VEGF165 transgenic mice; assay: VEGF-induced pulmonary hemorrhage in BAL fluids; settings: Tg+ mice, pretreatment, vs vehicle
Protocol: The CC10-rtTA-VEGF165 transgenic mice used in this study were generated and used as described previously (Lee et al., 2004, Nature Medicine 10:1095-103), which reference is incorporated herein in its entirety. These animals were housed under barrier conditions in the animal facility at Yale University School of Medicine. In these experiments 6-8 week old transgenic (Tg+) animals and their transgene negative littermate controls (Tg−) were randomized to receive water with doxycycline (dox) (0.5 mg/ml) or normal water. Two weeks later they were sacrificed and the VEGF-induced phenotype was evaluated as described below (Lee et al., 2004, Nature Medicine 10:1095-103). […]
Mice were sacrificed using intraperitoneal ketamine/xylazine injection and the trachea was cannulated and perfused with two 0.9 nil aliquots of cold saline. The cellular contents and BAL fluid were separated by centrifugation, the BAL cell number was quantitated and cell differential was assessed. […]
The lungs were removed en bloc as described elsewhere herein, inflated at 25 cm pressure with PBS containing 0.5% low melting point agarose gel, fixed in Streck solution (Streck Laboratories, La Vista, Nebr.), embedded in paraffin, sectioned and stained. […] Pulmonary hemorrhage was evaluated by quantitating BAL red blood cell number with a Coulter counter (Beckman Coulter).

[2] = tested on: CC10-rtTA-VEGF165 transgenic mice; assay: VEGF-induced vascular permeability (Evans blue dye extravasation, lung wet to dry weight ratio, BAL protein)
Protocol: To define the effects of Poly(I:C) a number of protocols were employed. In most experiments, a pretreatment-2 week protocol was employed. In these experiments, WT and Tg+ mice were treated with Poly(I:C) (30 μg in 50 lambda unless otherwise indicated; Amersham Biosciences, N.J.) or vehicle control via nasal aspiration and transgene activation was accomplished via the administration of dox (0.5 mg/ml) in the animal's drinking water 24 hours later. The Poly(I:C) was administered every other day and the dox was administered continuously for up to 2 weeks.
Lastly, in selected experiments post-transgene activation protocols were employed. In these experiments dox was administered for 2 days or 2 weeks. The Poly(I:C) was then administered via intranasal aspiration every other day for 2 weeks as disclosed elsewhere herein. In selected pre-treatment and post-transgene activation experiments, unmethylated CpG (CpG-B) (Keck Center, Yale University) was also employed at similar doses. At the end of these intervals, assessments of angiogenesis (anti-CD31 immunohistochemistry), vascular permeability (Evan's blue dye extravasation, wet to dry lung weight measurements, BAL protein concentration), BAL and tissue inflammatory cell infiltration and mucus metaplasia (periodic acid-Schiff (PAS) staining, MUC5AC immunoblotting) were undertaken. In all cases experiments were designed to compare Tg− and Tg+ mice on normal water and Tg− and Tg+ mice on dox water.
Lungs were excised en bloc and extrapulmonary tissues were removed. They were then weighed, placed in a desiccating oven at 65° C. for 48 hours and reweighed.
In some instances, animal lungs were excised en bloc after intravascular perfusion and weighed. They were then put into a SpeedVac system (ThermoSavant; Milford, Mass.), desiccated at 60° C. overnight, and reweighed.
Evans blue dye (EBD) (Sigma-Aldrich Inc.) in 0.9% saline at a concentration of 5 mg/ml was used to assess plasma leakage as previously described (Lee et al., 2004, Nat Med 10:1095-1103). The results are expressed as the ratio of the EBD absorbance at 620 nm of paired lung homogenates and serum.
BAL was undertaken and protein levels were assessed using the Dc Protein Assay Kit (Bio-Rad Laboratories, Hercules, Calif.) according to manufacturer's instructions. The optical density of each sample was read at 750 nm wave length with a Smartspec 3000 Spectrophotometer (Bio-Rad Laboratories).

[3] = tested on: VEGFR1; assay: VEGF receptor expression on dendritic and endothelial cells, FACS; settings: Tg+ mice, pretreatment-2 week protocol
Protocol: (§1) Cell preparations were obtained from Tg− and Tg+ mice that had been randomized to receive Poly(I:C) or its vehicle control according to the pretreatment-2 week protocol described above. They were then incubated with antibodies against CD45, CD11c, MHCII, CD31, VEGFR1 (R & D Systems), VEGFR2 (Biolegends, San Diego, Calif. USA) or VEGFR3 (R&D Systems). FACS analysis was used to define the levels of receptor expression on dendritic cells (CD45+, CD11c+, MHCII+) and endothelial cells (CD45−, CD31+).

[4] = tested on: VEGFR2; assay: as above; settings: Tg+ mice, pretreatment-2 week protocol
Protocol: as §1

[5] = tested on: KC/CXCL1 and MIP-2/CXCL14; assay: BAL neutrophil chemotactic chemokines by ELISA; settings: Tg+ mice, pretreatment, 2 weeks
Protocol: ELISA and activity assay kits for IFNa and IFNβ analysis were purchased from PBL Biomedical Laboratories (Piscataway, N.J.). ELISAs for eotaxin/CCL11, MCP-1/CCL2, KC/CXCL1 and MIP-2/CXCL14 were obtained from R&D Systems (Minneapolis, Minn. USA). Each was performed according to the manufacturer's instructions.

[6] = Tg+ mice, pretreatment, vs vehicle

Substance: polyinosinic-polycytidylic acid [Poly(I:C)]
- VEGF-induced bleeding / hemorrhage in BAL fluids [1]: significantly decreased
- Evan's blue dye leakage in lungs [2, 6]: lower levels
- VEGF-induced permeability alterations (Evans blue dye extravasation, lung wet to dry weight ratios, BAL protein) [2, 6]: inhibited
- levels of protein in BAL fluids [2, 6]: lower levels
- VEGF-induced vascular permeability alterations, delayed administration ([2]; given 48 hours or 14 days after dox-induced transgene activation): significant inhibition
- lowest dose with significant inhibition of VEGF-induced permeability alterations ([2]; pretreatment): 5 µg
- dose with maximal inhibition of VEGF-induced permeability alterations ([2]; pretreatment, highest dose tested): 30 µg
- expression of VEGFR1 on dendritic cells and endothelial cells [3]: inhibited
- expression of VEGFR2 on dendritic cells and endothelial cells [4]: not
- levels of KC/CXCL1 and MIP-2/CXCL14 in BAL [5]: significant increases
